This note sets out measurements from patent US7541368B2, “Pyrazoles as inhibitors of tumor necrosis factor” (Aventis Pharmaceuticals Inc., priority 2003, dated 2009).

The test concerns TNF-alpha release in THP-1 cells. As to the kind of experiment: LPS-induced TNF-alpha release in THP-1 cells. It is filed as cell-based. As to conditions: Homo sapiens, THP-1, LPS-stimulated THP-1 cells; read-out: 50% inhibition in the LPS-induced TNF-alpha release in THP-1 cells assay at concentrations within the range. The procedure: The effects of compounds on TNF-alpha production by lipopolysaccharide (LPS)-stimulated […] monocytes were examined as follows.
Undifferentiated THP-1 cells were maintained in RPMI 1640 with Glutamax I containing β-mercaptoethananol (50 μM) and foetal calf serum (FCS-10%) at densities of about 1×10^6 cells per ml. For incubations without and with test reagents, cells were seeded at the indicated densities under serum-deprived (1% FCS) conditions. Compounds were dissolved in dimethylsulfoxide (DMSO-100%) and incubated with the cells to give a fmal DMSO concentration of 0.3%. Control and untreated cell samples were incubated with DMSO (0.3%).
THP-1 cells (1×10 ^6 cells/ml, total volume 150 μl) in culture medium were incubated for 1 hour (5% CO2, 37° C.) with fresh medium containing compounds or vehicle (0.1-0.3% dimethylsulfoxide). LPS (20 μg/ml) was then added to the cells and the incubation continued for a fuirther 18 hours. Cell supernatants were removed into 96 well plates for storage at −20° C.
TNF-alpha concentrations in cell supernatants were quantified by sandwich ELISA. Briefly, ELISA plates were coated overnight with 2 μg/ml of mouse anti-human TNF-alpha antibody in bicarbonate buffer (pH 9.9). After washing the wells with wash buffer (0.05% (v/v) Tween in PBS)and blocking unoccupied sites (1% BSA in wash buffer), monocyte supernatant samples or human recombinant TNF-alpha standards were added into the corresponding wells of the ELISA plate at 1:10 dilution. Biotinylated rabbit polyclonal anti-human TNF-alpha antibody (3 μg/ml) was used as the second antibody and streptavidin-horseradish peroxidase was used as the detection antibody. The peroxidase substrate is 3,3′,5,5′-tetramethylbenzidine (TMB) in the presence of hydrogen peroxide.
TNFα concentrations in supernatants from control and LPS-stimulated monocyte incubations were calculated by interpolation from a standard (log/log) curve (0.125-16 ng/ml) fitted by Excel Fit using the Activity Base software. Compounds were tested within the concentration range of 1×10^−9M to 1×10^−6M.

Each structure is given as a SMILES string.

For `Cc1ccc(-n2nc(C(C)(C)C)cc2NC(=O)Nc2cccc(CC3CCN(C(=O)c4cnccc4C(F)(F)F)CC3)c2)cc1` [Compound A126, 1-(5-tert-Butyl-2-p-tolyl-2H-pyrazol-3-yl)-3-{3-[1-(4-trifluoromethyl-pyridine-3-carbonyl)-piperidin-4-ylmethyl]-phenyl}-urea], the IC50 was 0.01 to 0.5 µM.
Consider `COc1cccc(CC(=O)N2CCC(Cc3cccc(NC(=O)Nc4cc(C(C)(C)C)nn4-c4ccc(C)cc4)c3)CC2)c1OC` [Compound A22, 1-(5-tert-Butyl-2-p-tolyl-2H-pyrazol-3-yl)-3-(3-{1-[2-(2,3-dimethoxy-phenyl)-acetyl]-piperidin-4-ylmethyl}-phenyl)-urea], for which the IC50 fell in the range of 0.01 to 0.5 µM.
`Cc1ccc(-n2nc(C(C)(C)C)cc2NC(=O)Nc2cccc(CC3CCN(C(=O)c4nccc5ccccc45)CC3)c2)cc1` [Compound A13, 1-(5-tert-Butyl-2-p-tolyl-2H-pyrazol-3-yl)-3-{3-[1-(isoquinoline-1-carbonyl)-piperidin-4-ylmethyl]-phenyl}-urea]: the IC50 is 0.01 to 0.5 µM.
Take `Cc1ccc(-n2nc(C(C)(C)C)cc2NC(=O)Nc2cccc(CC3CCN(C(=O)c4cccc(C)n4)CC3)c2)cc1` [Compound A146, 1-(5-tert-Butyl-2-p-tolyl-2H-pyrazol-3-yl)-3-{3-[1-(6-methyl-pyridine-2-carbonyl)-piperidin-4-ylmethyl]-phenyl}-urea]: the IC50 was in the range of 0.01 to 0.5 µM.
Then `Cc1ccc(-n2nc(C(C)(C)C)cc2NC(=O)Nc2ccc(CC3CCN(C(=O)Cc4c[nH]c5ccccc45)CC3)cc2)cc1` [Compound A358, 1-(5-tert-Butyl-2-p-tolyl-2H-pyrazol-3-yl)-3-{4-[1-(2-1H-indol-3-yl-acetyl)-piperidin-4-ylmethyl]-phenyl}-urea], with 0.01 to 0.5 µM; and `Cc1ccc(-n2nc(C(C)(C)C)cc2NC(=O)Nc2cccc(CC3CCN(C(=O)c4ccc5ccccc5n4)CC3)c2)cc1` [Compound A184, 1-(5-tert-Butyl-2-p-tolyl-2H-pyrazol-3-yl)-3-{3-[1-(quinoline-2-carbonyl)-piperidin-4-ylmethyl]-phenyl}-urea], with 0.01 to 0.5 µM; and `Cc1ccc(-n2nc(C(C)(C)C)cc2NC(=O)Nc2ccc(CC3CCN(C(=O)c4cccc(Nc5nc(C)cc(C)n5)c4)CC3)cc2)cc1` [Compound A371, 1-(5-tert-Butyl-2-p-tolyl-2H-pyrazol-3-yl)-3-(4-{1-[3-(4,6-dimethyl-pyrimidin-2-ylamino)-benzoyl]-piperidin-4-ylmethyl}-phenyl)-urea], with 0.01 to 0.5 µM.
As to `Cc1ccc(-n2nc(C(C)(C)C)cc2NC(=O)Nc2ccc(CC3CCN(C(=O)c4ccnc5ccccc45)CC3)cc2)cc1` [Compound A385, 1-(5-tert-Butyl-2-p-tolyl-2H-pyrazol-3-yl)-3-{4-[1-(quinoline-4-carbonyl)-piperidin-4-ylmethyl]-phenyl}-urea], the IC50 lay within 0.01 to 0.5 µM.
Take `Cc1ccc(-n2nc(C(C)(C)C)cc2NC(=O)Nc2cccc(CC3CC4CCC(C3)N4C(=O)Cc3ccccc3F)c2)cc1` (centres unmarked) [Compound A761, 1-(5-tert-Butyl-2-p-tolyl-2H-pyrazol-3-yl)-3-(3-{8-[2-(2-fluoro-phenyl)-acetyl]-8-aza-bicyclo[3.2.1]oct-3-ylmethyl}-phenyl)-urea]: the IC50 is 0.01 to 0.5 µM.
As for `CC(=O)NCC(=O)N1C2CCC1CC(Cc1cccc(NC(=O)Nc3cc(C(C)(C)C)nn3-c3ccc(C)cc3)c1)C2` (centres unmarked) [Compound A766, N-[2-(3-{3-[3-(5-tert-Butyl-2-p-tolyl-2H-pyrazol-3-yl)-ureido]-benzyl}-8-aza-bicyclo[3.2.1]oct-8-yl)-2-oxo-ethyl]-acetamide], the IC50 lay within 0.01 to 0.5 µM.
Take `CC(=O)OCc1ccc(C(=O)N2CCC(Cc3cccc(NC(=O)Nc4cc(C(C)(C)C)nn4-c4ccc(C)cc4)c3)CC2)cc1` [Compound A148, Acetic acid 4-(4-{3-[3-(5-tert-butyl-2-p-tolyl-2H-pyrazol-3-yl)-ureido]-benzyl}-piperidine-1-carbonyl)-benzyl ester]: the IC50 was 0.01 to 0.5 µM.
Consider `Cc1ccc(-n2nc(C(C)(C)C)cc2NC(=O)Nc2ccc(CC3CCN(C(=O)c4cnn(-c5ccccc5)c4C)CC3)cc2)cc1` [Compound A331, 1-(5-tert-Butyl-2-p-tolyl-2H-pyrazol-3-yl)-3-{4-[1-(5-methyl-1-phenyl-1H-pyrazole-4-carbonyl)-piperidin-4-ylmethyl]-phenyl}-urea], for which the IC50 lay within 0.01 to 0.5 µM.
Turning to `Cc1ccc(-n2nc(C(C)(C)C)cc2NC(=O)Nc2ccc(CC3CCN(C(=O)c4ccc(S(C)(=O)=O)cc4Cl)CC3)cc2)cc1` [Compound A233, 1-(5-tert-Butyl-2-p-tolyl-2H-pyrazol-3-yl)-3-{4-[1-(2-chloro-4-methanesulfonyl-benzoyl)-piperidin-4-ylmethyl]-phenyl}-urea], the IC50 lay within 0.01 to 0.5 µM.
For `COc1cc(OC)c(C(=O)N2CCC(Cc3ccc(NC(=O)Nc4cc(C(C)(C)C)nn4-c4ccc(C)cc4)cc3)CC2)c(OC)c1` [Compound A215, 1-(5-tert-Butyl-2-p-tolyl-2H-pyrazol-3-yl)-3-{4-[1-(2,4,6-trimethoxy-benzoyl)-piperidin-4-ylmethyl]-phenyl}-urea], the IC50 was in the range of 0.01 to 0.5 µM.
On to `COc1ccc(C(=O)N2CCC(Cc3ccc(NC(=O)Nc4cc(C(C)(C)C)nn4-c4ccc(C)cc4)cc3)CC2)c(OC)n1` [Compound A224, 1-(5-tert-Butyl-2-p-tolyl-2H-pyrazol-3-yl)-3-{4-[1-(2,6-dimethoxy-pyridine-3-carbonyl)-piperidin-4-ylmethyl]-phenyl}-urea], for which the IC50 is 0.01 to 0.5 µM.
On to `Cc1ccc(-n2nc(C(C)(C)C)cc2NC(=O)Nc2cccc(CC3CCN(C(=O)c4ccc(N)c(OC(F)(F)F)c4)CC3)c2)cc1` [Compound A114, 1-{3-[1-(4-Amino-3-trifluoromethoxy-benzoyl)-piperidin-4-ylmethyl]-phenyl}-3-(5-tert-butyl-2-p-tolyl-2H-pyrazol-3-yl)-urea], for which the IC50 is 0.01 to 0.5 µM.
Take `Cc1ccc(-n2nc(C(C)(C)C)cc2NC(=O)Nc2cccc(CC3CCN(C(=O)c4ccc5cccnc5n4)CC3)c2)cc1` [Compound A8, 1-(5-tert-Butyl-2-p-tolyl-2H-pyrazol-3-yl)-3-{3-[1-([1,8]naphthyridine-2-carbonyl)-piperidin-4-ylmethyl]-phenyl}-urea]: the IC50 lay within 0.01 to 0.5 µM.
Regarding `Cc1ccc(-n2nc(C(C)(C)C)cc2NC(=O)Nc2ccc(CC3CCN(C(=O)c4ccc5ccccc5n4)CC3)cc2)cc1` [Compound A383, 1-(5-tert-Butyl-2-p-tolyl-2H-pyrazol-3-yl)-3-{4-[1-(quinoline-2-carbonyl)-piperidin-4-ylmethyl]-phenyl}-urea], the IC50 is 0.01 to 0.5 µM.
Consider `Cc1ccc(-n2nc(C(C)(C)C)cc2NC(=O)Nc2cccc(CC3CC4CCC(C3)N4C(=O)Cc3ccc(F)c(F)c3)c2)cc1` (centres unmarked) [Compound A719, 1-(5-tert-Butyl-2-p-tolyl-2H-pyrazol-3-yl)-3-(3-{8-[2-(3,4-difluoro-phenyl)-acetyl]-8-aza-bicyclo[3.2.1]oct-3-ylmethyl}-phenyl)-urea], for which the IC50 is 0.01 to 0.5 µM.
As to `CCCCC#CC(=O)N1CCC(Cc2ccc(NC(=O)Nc3cc(C(C)(C)C)nn3-c3ccc(C)cc3)cc2)CC1` [Compound A238, 1-(5-tert-Butyl-2-p-tolyl-2H-pyrazol-3-yl)-3-[4-(1-hept-2-ynoyl-piperidin-4-ylmethyl)-phenyl]-urea], the IC50 was 0.01 to 0.5 µM.
